We go through three compounds from patent US9206201B2, “Boronic acid bearing liphagane compounds as inhibitors of P13K-α and/or β” (COUNCIL OF SCIENTIFIC & INDUSTRIAL RESEARCH, priority 2012, dated 2015).

Read-outs that look alike come from different tables or passages of the source.

One experiment has as its target PI3Kβ (Homo sapiens (Human), UniProt P42338). Briefly: PI3K inhibition assay (PI3 Kinase activity/inhibitor assay kit), PI3Kβ. In kind it is biochemical. Here is the method:
PI3K inhibition assay (PI3K Assay (Emmanuelle M, Huang […] et al. Targeting Protein Translation in Human Non-Small Cell Lung Cancer via Combined MEK and Mammalian Target of Rapamycin Suppression. Cancer Res 67:(23). (2007).) was carried out by PI3 Kinase activity/inhibitor assay kit, where PI3 kinase reaction was set up in Glutathione-coated strips/plate for inhibitor reaction. Kinase and inhibitors were pre-incubated for 10 minutes prior to the addition of PIP2 substrate. 5 μL of 5× kinase reaction buffer were added in each well followed by the further addition of 5 μL/well of PIP2 substrate. Then distilled H2O was added to each well so as to make up a final volume of 25 μL/well. Incubation was done at rt for 1 hour which was followed by washing the wells 3 times with 200 μL of 1×TBST per well and then 2 times with 200 μL of IX TBS per well. Then 100 μL of the Substrate TMB per well was added and then to keep for colour development in the dark for 5-20 minutes. However, appearance of the blue color to avoid over-development were monitored. 100 μL of the stop solution per well was used to stop the reaction. Readings were recorded at 450 nm. The IC50 value of a drug measures the effectiveness of a compound in inhibiting biological or biochemical function. […]

In the next experiment the target is PI3K δ (Homo sapiens (Human), UniProt O00329). Description: PI3K inhibition assay, PI3K δ isoform. In kind it is biochemical. Here is the method:
(§1) PI3K inhibition assay (PI3K Assay (Emmanuelle M, Huang Y, Yan H G et al. Targeting Protein Translation in Human Non-Small Cell Lung Cancer via Combined MEK and Mammalian Target of Rapamycin Suppression. Cancer Res 67:(23). (2007).) was carried out by PI3 Kinase activity/inhibitor assay kit, where PI3 kinase reaction was set up in Glutathione-coated strips/plate for inhibitor reaction. Kinase and inhibitors were pre-incubated for 10 minutes prior to the addition of PIP2 substrate. 5 μL of 5× kinase reaction buffer were added in each well followed by the further addition of 5 μL/well of PIP2 substrate. Then distilled H2O was added to each well so as to make up a final volume of 25 μL/well. Incubation was done at rt for 1 hour which was followed by washing the wells 3 times with 200 μL of 1×TBST per well and then 2 times with 200 μL of IX TBS per well. Then 100 μL of the Substrate TMB per well was added and then to keep for colour development in the dark for 5-20 minutes. However, appearance of the blue color to avoid over-development were monitored. 100 μL of the stop solution per well was used to stop the reaction. Readings were recorded at 450 nm.

Another experiment addresses PI3K γ (Homo sapiens (Human), UniProt P48736). Briefly: PI3K inhibition assay, PI3K γ isoform. The experiment is classed as biochemical. Here is the method: as §1
The target in the next experiment is PI3Kα (Homo sapiens (Human), UniProt P42336). Briefly: PI3K inhibition assay (PI3 Kinase activity/inhibitor assay kit), PI3Kα. The note with it: read-out: IC50 against PI3Kα. In kind it is biochemical.
Chain of PI3Kα (P42336 whole entry, looked up): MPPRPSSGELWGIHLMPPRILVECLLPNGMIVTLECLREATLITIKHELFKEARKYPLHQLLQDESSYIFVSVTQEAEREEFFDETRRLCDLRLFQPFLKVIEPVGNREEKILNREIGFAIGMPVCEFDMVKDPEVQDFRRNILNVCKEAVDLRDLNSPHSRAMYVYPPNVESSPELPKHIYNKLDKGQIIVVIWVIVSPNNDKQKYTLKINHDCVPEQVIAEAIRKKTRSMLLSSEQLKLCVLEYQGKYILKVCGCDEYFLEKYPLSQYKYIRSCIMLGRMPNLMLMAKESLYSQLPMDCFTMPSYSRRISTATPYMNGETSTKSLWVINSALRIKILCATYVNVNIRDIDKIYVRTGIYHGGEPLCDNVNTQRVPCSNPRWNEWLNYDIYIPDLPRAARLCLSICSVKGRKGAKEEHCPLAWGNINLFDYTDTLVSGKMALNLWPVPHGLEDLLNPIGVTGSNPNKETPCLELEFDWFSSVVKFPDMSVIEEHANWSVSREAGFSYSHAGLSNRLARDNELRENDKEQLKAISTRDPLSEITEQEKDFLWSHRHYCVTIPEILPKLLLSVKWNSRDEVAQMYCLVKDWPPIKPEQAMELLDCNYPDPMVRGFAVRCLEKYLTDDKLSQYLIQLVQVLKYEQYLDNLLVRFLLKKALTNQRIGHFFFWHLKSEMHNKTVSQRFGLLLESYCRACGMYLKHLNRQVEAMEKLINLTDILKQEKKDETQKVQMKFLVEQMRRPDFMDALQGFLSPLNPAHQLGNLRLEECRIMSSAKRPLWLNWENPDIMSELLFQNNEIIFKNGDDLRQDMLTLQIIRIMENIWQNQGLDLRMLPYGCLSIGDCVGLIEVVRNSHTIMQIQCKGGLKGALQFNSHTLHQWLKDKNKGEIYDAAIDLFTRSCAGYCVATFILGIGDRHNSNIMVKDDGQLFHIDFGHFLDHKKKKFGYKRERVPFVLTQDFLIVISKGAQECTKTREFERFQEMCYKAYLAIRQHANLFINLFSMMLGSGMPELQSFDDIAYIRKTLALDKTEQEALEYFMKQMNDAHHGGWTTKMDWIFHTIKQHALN
Chain of PI3Kα (P27986 whole entry partner, looked up): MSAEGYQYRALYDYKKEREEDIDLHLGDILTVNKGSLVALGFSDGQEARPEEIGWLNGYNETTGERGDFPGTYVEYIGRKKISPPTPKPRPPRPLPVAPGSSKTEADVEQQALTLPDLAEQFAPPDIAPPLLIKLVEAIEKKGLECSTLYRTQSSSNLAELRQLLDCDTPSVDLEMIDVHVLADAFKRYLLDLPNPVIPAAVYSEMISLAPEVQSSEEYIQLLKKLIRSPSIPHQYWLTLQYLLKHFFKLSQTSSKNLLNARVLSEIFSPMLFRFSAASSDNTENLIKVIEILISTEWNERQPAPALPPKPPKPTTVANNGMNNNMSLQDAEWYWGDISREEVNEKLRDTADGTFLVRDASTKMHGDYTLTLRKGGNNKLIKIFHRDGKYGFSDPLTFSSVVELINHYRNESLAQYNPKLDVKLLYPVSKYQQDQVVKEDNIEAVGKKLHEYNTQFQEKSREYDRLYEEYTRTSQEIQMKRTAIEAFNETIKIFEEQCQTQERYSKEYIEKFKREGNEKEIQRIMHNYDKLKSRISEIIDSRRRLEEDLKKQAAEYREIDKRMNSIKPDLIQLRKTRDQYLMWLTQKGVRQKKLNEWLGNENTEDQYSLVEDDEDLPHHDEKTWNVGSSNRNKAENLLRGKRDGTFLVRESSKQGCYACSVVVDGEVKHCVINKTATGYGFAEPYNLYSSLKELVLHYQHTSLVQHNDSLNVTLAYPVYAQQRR
The subject of another experiment is human cancer cell lines. Briefly: In vitro cell line based anticancer activity, human cancer cell lines. The following applies: 10 μM. From the text: (§2) The MTT assay (MTT Assay (Legrier M E, Yang C P, Yan H G et al. Targeting protein translation in human non small lung cancer via combined MEK and mammalian target of rapamycin suppression. Cancer Res 67:11300-8(2007).) is useful for measuring the effect of a wide range of compounds on the in vitro growth of either normal or cancer cell lines. The assay was set up in a 96-well, flat-bottomed polystyrene microtiter plate. 3-5000 cells were suspended per well in appropriate growth medium, and the cells were added to replicate wells (triplicates were preferred). It was preferable to add the cells to the required number of wells in the plate prior to adding the drugs or the test agents. After the cells were added to the plate, it was placed on the incubator for overnight incubation, while the agents to be tested were being prepared. After overnight incubation drugs or test compounds were added at defined concentrations to each set of replicate wells and incubated for 48 hrs in CO2 incubator. Most of these compounds were dissolved in dimethyl sulfoxide (DMSO) for the final addition. After 48 hr incubation, diluted the MTT stock solution ([…]) with an equal volume of tissue culture medium and added 20 μl of this solution directly to each well with a multichannel pipette. […] A standard micro plate reader with adjustable wavelength across the visible spectrum was used. […]

For a further experiment, the system named is caco-2. Description: MTT cytotoxic assay, colon (caco-2) cell line. Also noted: species or system human. The following applies: 48 h, read-out: cell based IC50 (MTT).
From the text: as §2

Experiment [1] has as its system caco-2, colon human cancer cell line. Description: Cell cycle analysis by flow cytometry (propidium iodide). The note with it: caco-2, under similar conditions, concentration not given. The experiment is classed as cell-based. As for the experimental part:
Analysis (Cell cycle (Waxman D J, Schwartz P S, Harnessing apoptosis for improved anti-cancer gene therapy, Cancer Res. 63:8563-8572(2003).) of a population of cells replication state can be achieved by fluorescence labeling of the nuclei of cells in suspension and then analyzing the fluorescence properties of each cell in the population. The experiment was performed using caco-2, colon human cancer cell line. Cells were seeded in 6 well plates at the concentration of 3×10^5 cells/ml/well. Plate was incubated in CO2 incubator for overnight. After overnight incubation test sample(s) were added at desired concentration, sparing wells for negative and positive control and incubated for 24 hrs. After 24 hr incubation, cell were trypsinized along with test sample from each well was extracted using a micropippete and separately transferred into 15 ml centrifuge tubes. Tubes were centrifuged at 3000 rpm for 5 min. […] Reading was taken on flow cytometer (BD Biosciences).
Results: Cell cycle is the life cycle of a cell. […] In the present study, the effect of compound E on the DNA content by cell cycle phase distribution was assessed by using colon (caco-2) cell line. […] Cells (2×10^6/ml/6-well plate), exposed to different concentrations of compound E were stained with propidium iodide (PI) to determine DNA fluorescence and cell cycle phase distribution. […]
In general terms: Flow cytometry measures light scatter and fluorescence of single cells or particles in a stream.

Experiment [2] relates to pAkt (Ser 473) in CACO-2 cells. Description: Immunofluorescence microscopic analysis of pAKT (serine 473). In kind it is cell-based, human. The note with it: 4 μM, 24 hr. Here is the method:
For immunofluorescence microscopic analysis, 4×10^4 CACO-2 cells/ml were seeded on 18-mm coverslips in 6-well plates, one day before experiment. […] Following treatment, cells were washed in PBS, followed by fixation in absolute methanol at −20° C. for 5 min^19. The fixed cells were blocked with 10% goat serum in PBS for 20 min at room temperature to eliminate non-specific binding of secondary antibody. Cells were incubated with polyclonal rabbit pAKT (serine 473) primary antibody (1:100 in 0.5% BSA in PBS; Santa Cruz Biotechnology) for 1 h at 25° C. in moist chamber, then washed and incubated with secondary antibody. The cells were washed and incubated for 45 min with a Texas red-conjugated goat antirabbit antibody (1:500 in 0.5% BSA in PBS; Santa Cruz Biotechnology) at 25° C. The coverslips were mounted on glass slides with 4′,6-diamidino-2-phenylindole-containing ProLong Gold Antifade mounting medium (Invitrogen) and visualized by fluorescence microscope (Olympus, IX81) under an Olympus 60× oil immersion objective lens. The negative controls were also used in which incubation of cells with primary antibody was omitted.
Results: Phosphorylation (activation) of Akt is associated with protection of cells from apoptosis^20 (K. Nicholson, N. Anderson. 2002. The protein kinase B/Akt signaling pathway in human malignancy. Cell signal 14: 381-395). […]

Experiment [3] deals with caco-2 colon human cancer cell line. Description: Annexin-V apoptotic assay by flow cytometry. The experiment is classed as cell-based. The following applies: caco-2, under similar conditions, concentration not given. As for the experimental part: The cell death status was analysed using Annexin-V (Annexin-V apoptotic assay (Yunqing Li, FadilaGuessous, SherwinKwon, Manish Kumar. PTEN Has Tumor-Promoting Properties in the Setting of Gain-of-Function p53 Mutations, 2008 Cancer Res; 68: (6) (2008).) Flow cytometery. The experiment was performed using caco-2 colon human cancer cell line. Cells were seeded in 6 well plates at the concentration of 2×10^5 cells/ml/well. Plates were incubated in CO2 incubator for overnight. After overnight incubation test sample(s) were added at desired concentration, sparing wells for negative and positive control and incubated for 48 hrs. After 48 hr incubation, cell were trypsinized and separately transferred into 15 ml centrifuge tubes. Tubes were centrifuged at 3000 rpm for 5 min. The supernatant was discarded and pellet was resuspended in 1 ml filtered PBS and centrifuged at 2000 rpm for 5 min. After 5 mins supernatant was discarded and pellet was resuspended in […] of 1× binding buffer to make cell suspension. From this suspension, 100 μl of cells is transferred in falcon tube and then 10 μl of propidium iodide (PI) and 5 μl Annexin-V antibody were added and incubated for 30 min in dark. After 30 min incubation in dark, apoptosis were analysed by flow cytometer (BD Biosciences).
Overall, there was a concentration dependent net increase in late apoptotic cell population (FIG. 7).

Chain of PI3Kβ (P42338 whole entry): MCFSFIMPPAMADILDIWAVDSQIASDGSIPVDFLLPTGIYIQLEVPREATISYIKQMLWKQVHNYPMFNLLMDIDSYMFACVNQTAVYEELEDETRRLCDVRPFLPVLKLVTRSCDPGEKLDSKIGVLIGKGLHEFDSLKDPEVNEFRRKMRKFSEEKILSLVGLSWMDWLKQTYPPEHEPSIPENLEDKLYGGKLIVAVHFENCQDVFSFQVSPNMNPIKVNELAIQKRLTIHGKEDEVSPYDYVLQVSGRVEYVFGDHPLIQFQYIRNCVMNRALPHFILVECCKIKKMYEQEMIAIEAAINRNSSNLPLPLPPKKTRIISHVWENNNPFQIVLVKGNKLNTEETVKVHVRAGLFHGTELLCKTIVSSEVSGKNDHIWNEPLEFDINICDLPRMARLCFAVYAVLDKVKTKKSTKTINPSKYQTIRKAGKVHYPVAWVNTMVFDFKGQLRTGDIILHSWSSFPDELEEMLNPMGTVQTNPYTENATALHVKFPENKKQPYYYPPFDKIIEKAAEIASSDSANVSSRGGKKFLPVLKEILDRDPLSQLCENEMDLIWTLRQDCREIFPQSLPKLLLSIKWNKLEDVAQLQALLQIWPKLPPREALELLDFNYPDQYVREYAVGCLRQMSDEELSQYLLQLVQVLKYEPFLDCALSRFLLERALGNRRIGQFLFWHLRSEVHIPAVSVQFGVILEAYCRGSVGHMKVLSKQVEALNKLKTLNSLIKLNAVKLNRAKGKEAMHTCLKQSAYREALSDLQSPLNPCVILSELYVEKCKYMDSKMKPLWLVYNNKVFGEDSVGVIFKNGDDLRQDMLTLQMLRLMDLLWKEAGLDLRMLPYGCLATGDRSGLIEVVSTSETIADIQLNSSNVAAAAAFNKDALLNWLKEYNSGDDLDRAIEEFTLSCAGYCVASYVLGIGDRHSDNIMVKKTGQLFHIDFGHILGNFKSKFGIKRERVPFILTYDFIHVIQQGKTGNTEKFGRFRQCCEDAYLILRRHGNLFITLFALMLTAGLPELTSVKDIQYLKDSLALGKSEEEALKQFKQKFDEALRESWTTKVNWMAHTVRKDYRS
Chain of PI3Kβ (P27986 whole entry partner): as the sequence (P27986 whole entry partner, looked up) above
Chain of PI3K γ (P48736 whole entry, canonical isoform): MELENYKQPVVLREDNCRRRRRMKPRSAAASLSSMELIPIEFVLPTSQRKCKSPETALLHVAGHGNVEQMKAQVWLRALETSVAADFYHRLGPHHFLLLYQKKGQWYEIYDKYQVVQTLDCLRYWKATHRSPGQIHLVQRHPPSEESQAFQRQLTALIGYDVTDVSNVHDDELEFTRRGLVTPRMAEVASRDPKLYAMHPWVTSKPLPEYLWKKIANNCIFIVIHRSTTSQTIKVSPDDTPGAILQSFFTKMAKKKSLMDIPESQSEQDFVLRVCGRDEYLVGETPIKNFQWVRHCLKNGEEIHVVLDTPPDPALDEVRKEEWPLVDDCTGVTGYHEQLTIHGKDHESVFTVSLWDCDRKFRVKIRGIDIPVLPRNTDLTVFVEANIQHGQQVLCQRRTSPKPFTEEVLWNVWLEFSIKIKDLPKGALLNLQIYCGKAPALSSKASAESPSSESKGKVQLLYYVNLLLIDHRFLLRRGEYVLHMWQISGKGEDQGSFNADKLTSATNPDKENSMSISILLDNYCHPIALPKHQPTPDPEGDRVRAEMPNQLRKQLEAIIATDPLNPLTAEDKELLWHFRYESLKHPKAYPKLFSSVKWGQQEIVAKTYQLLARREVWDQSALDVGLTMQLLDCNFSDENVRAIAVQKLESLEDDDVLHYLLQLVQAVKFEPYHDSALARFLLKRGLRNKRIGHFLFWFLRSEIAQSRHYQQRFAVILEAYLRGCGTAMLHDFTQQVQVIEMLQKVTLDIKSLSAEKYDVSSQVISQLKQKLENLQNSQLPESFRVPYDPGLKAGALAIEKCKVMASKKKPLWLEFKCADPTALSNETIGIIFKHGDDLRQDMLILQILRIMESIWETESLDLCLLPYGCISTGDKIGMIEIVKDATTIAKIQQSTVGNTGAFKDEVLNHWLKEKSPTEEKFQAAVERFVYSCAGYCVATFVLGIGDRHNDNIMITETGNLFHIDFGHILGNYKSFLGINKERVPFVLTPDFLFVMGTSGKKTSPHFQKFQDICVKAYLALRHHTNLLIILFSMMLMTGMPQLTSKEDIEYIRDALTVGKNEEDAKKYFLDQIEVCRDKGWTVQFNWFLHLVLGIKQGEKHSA
Chain of PI3K δ (O00329 whole entry, canonical isoform): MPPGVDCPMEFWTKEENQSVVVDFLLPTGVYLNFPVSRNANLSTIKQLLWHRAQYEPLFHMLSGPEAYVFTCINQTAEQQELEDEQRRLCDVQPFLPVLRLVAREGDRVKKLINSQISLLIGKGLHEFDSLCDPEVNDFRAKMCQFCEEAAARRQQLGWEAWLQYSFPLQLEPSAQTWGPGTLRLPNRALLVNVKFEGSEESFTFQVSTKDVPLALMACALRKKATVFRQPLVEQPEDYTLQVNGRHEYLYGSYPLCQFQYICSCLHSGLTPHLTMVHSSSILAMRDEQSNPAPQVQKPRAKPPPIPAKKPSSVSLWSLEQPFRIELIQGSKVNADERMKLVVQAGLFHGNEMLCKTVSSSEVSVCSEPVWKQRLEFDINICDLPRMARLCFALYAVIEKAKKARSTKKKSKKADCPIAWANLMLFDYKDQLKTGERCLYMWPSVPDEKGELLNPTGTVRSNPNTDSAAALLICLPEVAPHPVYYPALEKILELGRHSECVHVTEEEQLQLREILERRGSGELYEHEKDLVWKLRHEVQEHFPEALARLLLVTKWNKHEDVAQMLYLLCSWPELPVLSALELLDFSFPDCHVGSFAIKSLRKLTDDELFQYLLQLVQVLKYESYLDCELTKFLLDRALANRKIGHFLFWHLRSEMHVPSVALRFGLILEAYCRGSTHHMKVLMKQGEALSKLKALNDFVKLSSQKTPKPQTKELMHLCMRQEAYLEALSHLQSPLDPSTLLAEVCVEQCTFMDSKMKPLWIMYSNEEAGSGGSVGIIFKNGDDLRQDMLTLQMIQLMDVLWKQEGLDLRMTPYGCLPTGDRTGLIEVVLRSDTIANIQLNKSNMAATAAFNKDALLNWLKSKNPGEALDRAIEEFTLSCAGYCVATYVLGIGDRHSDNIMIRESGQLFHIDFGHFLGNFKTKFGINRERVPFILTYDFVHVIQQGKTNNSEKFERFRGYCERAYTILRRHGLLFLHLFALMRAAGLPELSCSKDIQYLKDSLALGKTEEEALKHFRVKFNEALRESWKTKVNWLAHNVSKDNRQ
Chain of PI3K δ (P27986 whole entry partner, canonical isoform): as the sequence (P27986 whole entry partner, looked up) above

What is called IC50 is the midpoint of a concentration-inhibition curve. On to `CC1(C)CCCC2(C)c3c(oc4c(B(O)O)c(O)c(O)cc34)CCC12` (centres unmarked) [Compound AZ], for which the IC50 worked out at 5700 nM on PI3Kβ (read-out: PI3K (IC50) β), 303000 nM against PI3K δ, 85400 nM at PI3K γ and 23 nM on PI3Kα.

For `C=C(CC/C=C(\C)CCC=C(C)C)c1cc2cc(OC)c(OC)cc2o1` [Compound A], in the experiment on human cancer cell lines, the optimal growth inhibition is reported as above 74%. Also, the results for the concentration for half-maximal inhibition (IC50) on PI3Kβ (read-out: IC50 against PI3Kβ), with caco-2 and on PI3Kα were 100 nM, 2400 nM and 140 nM, respectively.

Consider Liphagal, for which the “percentage of cells in sub-G0 phase” value in experiment [1] stood at 64.9%. The “effect on pAkt (Ser 473)” value in [2] was “inhibition of pAKT”. The “percentage of cells in late apoptotic phase” value in experiment [3] was determined as 42.7%.
